A value given as a limit tells only on which side of the number the result lay.

The target in the first assay is T1, Proto-oncogene tyrosine-protein kinase Src (Homo sapiens, UniProt P12931). Kind of assay: (§1) Inhibition of Src protein tyrosine kinase.
T1 sequence (P12931 2-536 limits assumed): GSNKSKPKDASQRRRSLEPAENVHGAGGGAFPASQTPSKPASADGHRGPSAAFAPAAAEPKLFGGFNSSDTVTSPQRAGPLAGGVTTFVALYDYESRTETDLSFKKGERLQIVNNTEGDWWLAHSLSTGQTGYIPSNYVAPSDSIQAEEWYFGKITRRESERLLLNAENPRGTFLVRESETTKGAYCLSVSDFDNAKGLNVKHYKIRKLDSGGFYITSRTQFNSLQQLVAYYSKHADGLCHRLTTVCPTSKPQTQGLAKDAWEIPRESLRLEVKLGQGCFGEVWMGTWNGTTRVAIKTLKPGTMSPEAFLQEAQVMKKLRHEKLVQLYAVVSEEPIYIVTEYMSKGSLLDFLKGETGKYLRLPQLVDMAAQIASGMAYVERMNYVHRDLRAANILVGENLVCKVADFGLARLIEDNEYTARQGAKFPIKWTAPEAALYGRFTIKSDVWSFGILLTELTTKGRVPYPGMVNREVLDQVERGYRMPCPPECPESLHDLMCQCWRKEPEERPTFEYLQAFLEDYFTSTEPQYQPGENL
Settings: not given
Consider `COc1cc2ncc(C#N)c(Nc3ccc(Cl)cc3Cl)c2cc1OC`, for which the IC50 – broadly, the concentration needed to halve the response being measured – turned out to be 30 nM. For the molecule `COCCOc1cc2c(cc1OC)Nc1ncnc(Nc3cc(OC)c(Cl)cc3Cl)c1C2`, the half-maximal inhibitory concentration (IC50) turned out to be 9.8 nM.

As to `COc1cc(Nc2ncnc3c2Cc2cc(OC)c(OC)cc2N3)c(Cl)cc1Cl`, inhibition was half-maximal at 3.3 nM (IC50). As to `COc1cc(Nc2ncnc3nc4cc(OC)c(OC)cc4cc23)c(Cl)cc1Cl`, the IC50 was more than 10000 nM. The same measure, in the same setting: for `COCCOc1cc2c(cc1OC)Cc1c(Nc3cc(OC)c(Cl)cc3Cl)ncnc1N2` the value was 2.3 nM; for `COc1cc(Nc2c(C#N)cnc3cc(OC)c(OC)cc23)c(Cl)cc1Cl`, 4.3 nM. With `COCCOc1cc2c(cc1OC)Cc1c(Nc3ccc(Cl)cc3Cl)ncnc1N2`, it took 16 nM to reach half-maximal inhibition (IC50).

The target of the next assay is T1, Proto-oncogene tyrosine-protein kinase Src. Described as §1. To be noted: concentration not given here.
Turning to `COCCOc1cc2nc3ncnc(Nc4cc(OC)c(Cl)cc4Cl)c3cc2cc1OC`, the inhibition (usually the share of the control response that was lost under treatment) came out at 35%.

The values are drawn from ChEMBL document CHEMBL1136195, “Inhibition of Src kinase activity by 4-anilino-5,10-dihydro-pyrimido[4,5-b]quinolines” (Bioorg Med Chem Lett, 2003).
